Measurements published in patent publication US20210069083A1, “METHOD FOR IMPROVING SKIN WHITENING POWER OF A SKIN WHITENING AGENT” (Symrise AG, priority 2013, published 2021).

Test system: B16V mouse melanoma cells
Assay: Depigmentation effect on melanoma cell cultures (inhibition of pigmentation / melanin inhibition)
Assay type: cell-based
Settings: for IC50: Mus musculus, B16V cells, 0.3 mM tyrosine and 10 nM α-MSH, 96 h incubation, absorption at 400 nm
Description: B16V mouse melanoma cells are disseminated in a 96-well micro-titre plate in a concentration of 7.5×10^3 cells/well. After cultivation for 24 h at 37° C. and 5% CO2 in RPMI medium, enriched with 10% foetal calf serum, various concentrations of the test substances and 0.3 mM tyrosine and 10 nM α-MSH (α-melanocyte stimulating hormone) are added and incubated for a further 96 h. The maximum concentration of the test substances used corresponds to 0.1 times the value of the IC20 value of the cytotoxicity assay. Only tyrosine and α-MSH are added to the controls. After incubation, sodium hydroxide solution (final concentrations: 1 M) is added to the culture medium and the absorption (A) is measured after 3 h at 400 nm.
The inhibition of pigmentation in the presence of the test compounds was calculated using the following equation:
Inhibition of pigmentation (%)=100−[(Atest compound/Acontrol)×100]
wherein Atest compound=absorption of the wells with test substance and with cells Acontrol=absorption of the wells without test substance, but with cells
From the inhibition of pigmentation (%) in a series of dilutions of test compounds, the IC50 for each test compound is calculated. This is the concentration of a test compound at which pigmentation is inhibited by 50%. The results are compiled in Table 1:
Experimental procedure as described in Example 1. SymWhite® 377 stands for Phenylethyl resorcinol.
The Synergy Index (SI)^1 is calculated according to Kull's equation as follows: […]
with A: individual result of substance A B: individual result of substance B C: result of the mixture of A and B D: percentage of substance Ain the mixture E: percentage of substance B in the mixture ^1 The calculation of the synergy index (SI-value) was carried out on the basis of following literature: D. C. Steinberg, Cosmetics & Toiletries 2000, 115 (11), 59-62 and F. C. Kull et al., Applied Microbiology 1961, 9, 538-541.
In contrast to the given examples in the literature, in which reduced values for A, B and C (i.e. the minimal concentration of inhibition in antimicrobial tests) mean better activity and consequently SI values <1 document a synergistic effect, increasing values of the here analysed melanin inhibition mean better efficacy. According to Kull's equation the evidence for a synergistic effect results for SI values >1. In the experiments with Sclareolide and SyrnWhite® 377 the calculated SI values obviously exceed 1 (experiments 1 and 2). From this it follows that a composition of Sclareolide and SymWhite® 377 constitutes a potent synergistic combination of active ingredients.

CC(c1ccccc1)c1ccc(O)cc1O (stereo not shown) [SymWhite ® 377, 4-(1-phenylethyl)1,3-dihydroxybenzene]
Melanin inhibition (Ex. 1, Kull variable B, conc. 1.6 μm): 59.8%
Melanin inhibition (Ex. 2, Kull variable B, conc. 1.6 μm): 55.9%

CC1(C)CCC[C@]2(C)C3CC(=O)O[C@]3(C)CC[C@@H]12 (stereo partly drawn) [Sclareolide, (3aR,5aS,9aS,9bR)-decahydro-3a,6,6,9a-tetramethyl-naphtha[2,1-b]furan-2(1H)-one]
Melanin inhibition (Ex. 1, Kull variable A, conc. 3.2 μm): 50.0%
Melanin inhibition (Ex. 2, Kull variable A, conc. 3.2 μm): 35.8%
IC50: 10.2 µM

O=c1cc(CO)occ1O [Kojic acid, 5-hydroxy-2-hydroxymethyl-4-pyranone]
IC50: 452 µM

OC[C@H]1O[C@@H](Oc2ccc(O)cc2)[C@H](O)[C@@H](O)[C@@H]1O [beta-Arbutin]
IC50: 67 µM
